Target: T1, NR2F6 (Homo sapiens, UniProt P10588)
T1 construct: expressed in transfected cells; also transient transfection
T1 sequence (P10588 1-404): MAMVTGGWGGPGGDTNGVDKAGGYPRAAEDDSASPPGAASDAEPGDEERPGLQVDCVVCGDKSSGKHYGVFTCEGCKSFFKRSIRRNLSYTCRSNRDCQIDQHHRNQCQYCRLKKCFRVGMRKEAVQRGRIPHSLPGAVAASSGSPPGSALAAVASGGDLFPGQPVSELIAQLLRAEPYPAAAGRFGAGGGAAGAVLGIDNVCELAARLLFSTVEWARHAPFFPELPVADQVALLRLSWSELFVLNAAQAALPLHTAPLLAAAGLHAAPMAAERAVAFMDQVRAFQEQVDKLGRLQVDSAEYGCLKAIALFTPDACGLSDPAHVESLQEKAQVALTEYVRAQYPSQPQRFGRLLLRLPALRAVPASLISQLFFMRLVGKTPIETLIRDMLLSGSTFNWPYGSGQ
Test: NR2F6 agonist screening, Firefly signal cmpd/DMSO
Format: cell-based
Design: Firefly NR2F6 full length, cmpd/DMSO (mean) / Firefly F4, cmpd/DMSO (mean): unit of the concentration uncertain
Conditions: for Firefly/Renilla (NR2F6 stable, clone F4): ratio Firefly/Renilla; for Firefly, NR2F6 stable (clone F4)/pGL4: ratio of Firefly in NR2F6 stable clone F4 to pGL4; for Firefly, cmpd/DMSO (mean): mean of repeats; for Firefly, cmpd repeat 1 / Firefly, cmpd repeat 2: raw signal

[1] = C11 analogs follow set (Tables 2-10)
[2] = Concentration 2 (unit uncertain)
[3] = Concentration 10 (unit uncertain)
[4] = Concentration 40 (unit uncertain)

Firefly, cmpd/DMSO repeat 1 [1] | Firefly, cmpd/DMSO repeat 2 [1] | Firefly, cmpd/DMSO repeat 1 (Table 11) | Firefly, cmpd/DMSO repeat 2 (Table 11) | Compound | other results
1.4 | 1.7 |  |  | COc1ccc2cc(S(=O)(=O)c3ccc(Br)cc3)c(=O)oc2c1 [Compound C267] | 
3.2 | 3.1 |  |  | COc1ccc2cc(S(=O)(=O)c3ccc(C)c(C)c3)c(=O)oc2c1 [Compound C270] | 
4.5 | 3.1 |  |  | COc1ccc2cc(S(=O)(=O)c3ccc(Cl)c(Cl)c3)c(=O)oc2c1 [Compound C272] | 
3.3 | 3.5 |  |  | COc1ccc2cc(S(=O)(=O)c3ccc(OC)c(OC)c3)c(=O)oc2c1 [Compound C274] | 
2.6 | 2.5 |  |  | COc1ccc2cc(S(=O)(=O)c3ccc(F)c(Cl)c3)c(=O)oc2c1 [Compound C275] | 
1.2 | 1.3 |  |  | O=c1oc2cc(O)ccc2cc1S(=O)(=O)c1ccc(F)c(Cl)c1 [Compound C276] | 
0.7 | 1.1 |  |  | COc1ccc2cc(S(=O)(=O)c3ccc(F)c(C)c3)c(=O)oc2c1 [Compound C282] | 
 |  | 1.0 | 1.3 | COc1ccc(S(=O)(=O)c2cc3cc(Br)cc(Br)c3oc2=O)cc1 [Compound C283] | 
 |  | 2.9 | 2.5 | CC(C)c1ccc(S(=O)(=O)c2cc3cc(Br)cc(Br)c3oc2=O)cc1 [Compound C284] | 
 |  | 1.0 | 1.0 | Cc1ccc(S(=O)(=O)c2cc3cc(Br)cc(Br)c3oc2=O)cc1C [Compound C285] | 
 |  | 2.3 | 2.4 | O=c1oc2c(Br)cc(Br)cc2cc1S(=O)(=O)c1ccc(Cl)cc1 [Compound C286] | 
 |  | 3.0 | 2.6 | O=c1oc2c(Br)cc(Br)cc2cc1S(=O)(=O)c1ccc(Cl)c(Cl)c1 [Compound C287] | 
 |  | 6.8 | 3.3 | O=c1oc2c(F)cc(F)cc2cc1S(=O)(=O)c1ccccc1 [Compound C288] | 
 |  | 31.3 | 15.6 | COc1ccc(S(=O)(=O)c2cc3cc(F)cc(F)c3oc2=O)cc1 [Compound C289] | Firefly/Renilla (NR2F6 stable, clone F4) (Table 12): 2.0; Firefly, NR2F6 stable (clone F4)/pGL4 (Table 12): 15.3; Firefly, cmpd/DMSO repeat 1 (Table 12): 31.3; Firefly, cmpd/DMSO repeat 2 (Table 12): 15.6
 |  | 13.8 | 14.6 | O=c1oc2c(F)cc(F)cc2cc1S(=O)(=O)c1ccc(Br)cc1 [Compound C290] | 
 |  | 0.9 | 0.8 | CC(C)(C)c1ccc(S(=O)(=O)c2cc3cc(F)cc(F)c3oc2=O)cc1 [Compound C291] | 
 |  | 18.3 | 14.8 | Cc1cc(S(=O)(=O)c2cc3cc(F)cc(F)c3oc2=O)ccc1F [Compound C292] | Firefly/Renilla (NR2F6 stable, clone F4) (Table 13): 1.1; Firefly, NR2F6 stable (clone F4)/pGL4 (Table 13): 9.7; Firefly, cmpd/DMSO repeat 1 (Table 13): 18.3; Firefly, cmpd/DMSO repeat 2 (Table 13): 14.8
 |  | 8.5 | 11.9 | O=c1oc2c(F)cc(F)cc2cc1S(=O)(=O)c1ccc(Cl)cc1 [Compound C293] | 
 |  | 16.5 | 16.5 | COc1cc(Br)cc2cc(S(=O)(=O)c3ccccc3)c(=O)oc12 [Compound C294] | 
 |  | 4.0 | 4.6 | COc1cc(Br)cc2cc(S(=O)(=O)c3ccc(F)cc3)c(=O)oc12 [Compound C295] | 
 |  | 6.0 | 7.8 | COc1ccc(S(=O)(=O)c2cc3cc(Br)cc(OC)c3oc2=O)cc1 [Compound C296] | 
 |  | 1.5 | 2.6 | COc1cc(Br)cc2cc(S(=O)(=O)c3ccc(C(C)(C)C)cc3)c(=O)oc12 [Compound C297] | 
 |  | 2.2 | 3.2 | COc1cc(Br)cc2cc(S(=O)(=O)c3ccc(F)c(C)c3)c(=O)oc12 [Compound C298] | 

The next lines start with the compound.

Compound | Firefly, cmpd/DMSO repeat 1 [1] | Firefly, cmpd/DMSO repeat 2 [1] | Firefly, cmpd/DMSO repeat 1 (Table 11) | Firefly, cmpd/DMSO repeat 2 (Table 11) | other results
COc1ccc2cc(S(=O)(=O)c3cccc(C#N)c3)c(=O)oc2c1 [Compound C263] | 1.8 | 1.7 |  |  | 
COc1ccc2cc(S(=O)(=O)c3ccccc3)c(=O)oc2c1 [Compound C264] | 1.1 | 0.8 |  |  | 
COc1ccc2cc(S(=O)(=O)c3ccc(C)cc3)c(=O)oc2c1 [Compound C265] | 1.0 | 1.3 |  |  | 
COc1ccc(S(=O)(=O)c2cc3ccc(OC)cc3oc2=O)cc1 [Compound C266] | 0.9 | 1.2 |  |  | 
COc1ccc2cc(S(=O)(=O)c3ccc(C(C)(C)C)cc3)c(=O)oc2c1 [Compound C268] | 2.8 | 3.1 |  |  | 
COc1ccc2cc(S(=O)(=O)c3ccc(C(C)C)cc3)c(=O)oc2c1 [Compound C269] | 3.0 | 3.0 |  |  | 
COc1ccc2cc(S(=O)(=O)c3ccc(Cl)cc3)c(=O)oc2c1 [Compound C271] | 2.2 | 1.2 |  |  | 
O=c1oc2cc(O)ccc2cc1S(=O)(=O)c1ccccc1 [Compound C273] | 2.0 | 1.5 |  |  | 
CCN(CC)c1ccc2cc(S(=O)(=O)c3ccc(C)cc3)c(=O)oc2c1 [Compound C277] | 3.4 | 2.9 |  |  | 
CCN(CC)c1ccc2cc(S(=O)(=O)c3ccc(Br)cc3)c(=O)oc2c1 [Compound C278] | 2.4 | 3.0 |  |  | 
CCN(CC)c1ccc2cc(S(=O)(=O)c3ccc(Cl)cc3)c(=O)oc2c1 [Compound C279] | 3.9 | 2.1 |  |  | 
COc1ccc2cc(S(=O)(=O)c3ccccc3F)c(=O)oc2c1 [Compound C280] | 0.6 | 0.6 |  |  | 
COc1ccc2cc(S(=O)(=O)c3cccc(Cl)c3)c(=O)oc2c1 [Compound C281] | 3.0 | 4.4 |  |  | 
Cc1ccc2oc(=O)c(S(=O)(=O)c3cccc(C#N)c3)cc2c1 [Compound C299] |  |  |  |  | Firefly/Renilla (NR2F6 stable, clone F4) (Table 12): 4.0; Firefly, NR2F6 stable (clone F4)/pGL4 (Table 12): 10.1; Firefly, cmpd/DMSO repeat 1 (Table 12): 21.5; Firefly, cmpd/DMSO repeat 2 (Table 12): 15.2
Cc1ccc2oc(=O)c(S(=O)(=O)c3cccc(Cl)c3)cc2c1 [Compound C300] |  |  |  |  | Firefly/Renilla (NR2F6 stable, clone F4) (Table 13): 1.6; Firefly, NR2F6 stable (clone F4)/pGL4 (Table 13): 4.3; Firefly, cmpd/DMSO repeat 1 (Table 13): 9.8; Firefly, cmpd/DMSO repeat 2 (Table 13): 7.4
CCOC(=O)c1cnc2c(C)cc(C)cc2c1NCCCN(C)C [Compound D28] |  |  |  |  | Firefly, cmpd/DMSO (mean): 12.8; Firefly, cmpd repeat 1: 784; Firefly, cmpd repeat 2: 644; Firefly, cmpd/DMSO repeat 1: 14.1; Firefly, cmpd/DMSO repeat 2: 11.7
COc1ccc(OC)c(S(=O)(=O)NCc2nc3nc(C)cc(C)n3n2)c1 [Compound E4] |  |  |  |  | Firefly F4, cmpd/DMSO (mean) [2]: 0.9; Firefly NR2F6 full length, cmpd/DMSO (mean) [2]: 1.1; Firefly F4, cmpd/DMSO (mean) [3]: 0.9; Firefly NR2F6 full length, cmpd/DMSO (mean) [3]: 1.0; Firefly F4, cmpd/DMSO (mean) [4]: 0.8; Firefly NR2F6 full length, cmpd/DMSO (mean) [4]: 1.0
COc1ccc(S(=O)(=O)NCc2nc3nc(C)cc(C)n3n2)cc1OC [Compound E8] |  |  |  |  | Firefly F4, cmpd/DMSO (mean) [2]: 1.0; Firefly NR2F6 full length, cmpd/DMSO (mean) [2]: 1.2; Firefly F4, cmpd/DMSO (mean) [3]: 1.0; Firefly NR2F6 full length, cmpd/DMSO (mean) [3]: 1.2; Firefly F4, cmpd/DMSO (mean) [4]: 0.7; Firefly NR2F6 full length, cmpd/DMSO (mean) [4]: 0.9
Cc1cc(C)c(S(=O)(=O)NCc2nc3nc(C)cc(C)n3n2)c(C)c1 [Compound E10] |  |  |  |  | Firefly F4, cmpd/DMSO (mean) [2]: 1.1; Firefly NR2F6 full length, cmpd/DMSO (mean) [2]: 1.3; Firefly F4, cmpd/DMSO (mean) [3]: 1.0; Firefly NR2F6 full length, cmpd/DMSO (mean) [3]: 1.5; Firefly F4, cmpd/DMSO (mean) [4]: 0.8; Firefly NR2F6 full length, cmpd/DMSO (mean) [4]: 1.1
COc1ccc(Cl)cc1S(=O)(=O)NCc1nc2nc(C)cc(C)n2n1 [Compound E15] |  |  |  |  | Firefly F4, cmpd/DMSO (mean) [2]: 1.3; Firefly NR2F6 full length, cmpd/DMSO (mean) [2]: 1.2; Firefly F4, cmpd/DMSO (mean) [3]: 1.1; Firefly NR2F6 full length, cmpd/DMSO (mean) [3]: 0.8; Firefly F4, cmpd/DMSO (mean) [4]: 0.8; Firefly NR2F6 full length, cmpd/DMSO (mean) [4]: 1.1
Cc1cc(C)n2nc(CNS(=O)(=O)c3c(F)c(F)c(F)c(F)c3F)nc2n1 [Compound E21] |  |  |  |  | Firefly, cmpd/DMSO (mean): 7.3; Firefly, cmpd repeat 1: 526; Firefly, cmpd repeat 2: 306; Firefly, cmpd/DMSO repeat 1: 9.5; Firefly, cmpd/DMSO repeat 2: 5.6; activity (in words) (screening result): desirable activity
Cc1ccc(S(=O)(=O)NCc2cn3ccccc3n2)c(C)c1 [Compound E24] |  |  |  |  | Firefly F4, cmpd/DMSO (mean) [2]: 1.0; Firefly NR2F6 full length, cmpd/DMSO (mean) [2]: 1.0; Firefly F4, cmpd/DMSO (mean) [3]: 0.9; Firefly NR2F6 full length, cmpd/DMSO (mean) [3]: 1.1; Firefly F4, cmpd/DMSO (mean) [4]: 0.7; Firefly NR2F6 full length, cmpd/DMSO (mean) [4]: 1.1

— patent US11377442B2, “Small molecule agonists and antagonists of NR2F6 activity” (ZANDER THERAPEUTICS, INC., priority 2016, dated 2022)
